Source: the supplement of paper PMC6045584

Assays:
Test in all cases: area under dose-response curve of surviving fraction (unscaled, Aref=0) (surviving fraction x log10(nM)); higher = more resistant
Details in all cases: exposure time: 5 days; dose range 0.5-1000 nM
[1] = compound: COc1cc2c(Oc3ccc(NC(=O)C4(C(=O)Nc5ccc(F)cc5)CC4)cc3F)ccnc2cc1OCCCN1CCOCC1 [FORETINIB]
How it was run: (§1)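 Inhibitor was applied to tumour cell lines at eight concentrations (0.5 to 1000 nM) for five days in 384-well plates. Luminescence from CellTiter-Glo, scaled to DMSO-only wells, gave surviving fractions in three screens per line, and these were fitted by 3-parameter logistic regression with the drc R package. The area under the curve is an unscaled activity area. Aref was 0, and dose was on a log10 scale.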

[2] = compound: CN1CCN(c2nc(C3=C(c4c[nH]c5ccccc45)C(=O)NC3=O)c3ccccc3n2)CC1 [SOTRASTAURIN/AEB071]
How it was run: as §1

[3] = compound: C[C@@H](Oc1cc(-c2cnn(C3CCNCC3)c2)cnc1N)c1c(Cl)ccc(F)c1Cl
How it was run: as §1

[4] = compound: CCn1c(C(=O)N(C2CC2)C2CC2)cc2c3c(ncn3C)c(Nc3cc(C)n(C)n3)nc21
How it was run: as §1

[5] = compound: CNCc1ccc(-c2[nH]c3cc(F)cc4c3c2CCNC4=O)cc1
How it was run: as §1

[6] = compound: COc1cc2ncnc(Nc3ccc(F)c(Cl)c3)c2cc1NC(=O)/C=C/CN1CCCCC1
How it was run: as §1

[7] = compound: O=C(c1cc(Cc2n[nH]c(=O)c3ccccc23)ccc1F)N1CCN(C(=O)C2CC2)CC1 [OLAPARIB]
How it was run: as §1

[8] = compound: Cn1nnc2c(C(N)=O)ncn2c1=O [TEMOZOLOMIDE]
How it was run: as §1

[9] = compound: Oc1nc(-c2ccc(C(F)(F)F)cc2)nc2c1CSCC2 [XAV-939]
How it was run: as §1

[10] = compound: Cc1nc(Nc2ncc(C(=O)Nc3c(C)cccc3Cl)s2)cc(N2CCN(CCO)CC2)n1 [DASATINIB]
How it was run: as §1

[11] = compound: NS(=O)(=O)OC[C@@H]1C[C@@H](n2ccc3c(N[C@H]4CCc5ccccc54)ncnc32)C[C@@H]1O [MLN-4924]
How it was run: as §1

[12] = compound: C[C@]12CC[C@H](O)CC1=CC[C@@H]1[C@@H]2CC[C@]2(C)C(c3cccnc3)=CC[C@@H]12 [ABIRATERONE]
How it was run: as §1

[13] = compound: C[C@@H](Oc1cc(-c2cnn(C3CCNCC3)c2)cnc1N)c1c(Cl)ccc(F)c1Cl [CRIZOTINIB]
How it was run: as §1

[14] = compound: CNC(=O)c1cc(Oc2ccc(NC(=O)Nc3ccc(Cl)c(C(F)(F)F)c3)cc2)ccn1 [SORAFENIB]
How it was run: as §1

| Test System | area under dose-response curve [1] | area under dose-response curve [2] | area under dose-response curve [3] | area under dose-response curve [4] | area under dose-response curve [5] | area under dose-response curve [6] | area under dose-response curve [7] | area under dose-response curve [8] | area under dose-response curve [9] | area under dose-response curve [10] | area under dose-response curve [11] | area under dose-response curve [12] | area under dose-response curve [13] | area under dose-response curve [14] |
| --- | --- | --- | --- | --- | --- | --- | --- | --- | --- | --- | --- | --- | --- | --- |
| NCIH441 LUNG | 3.13 | 3.4 | 3.16 | 3.28 | 3.19 | 3.01 | 3.38 | 3.69 | 3.35 | 2.55 | 2.76 | 3.41 |  |  |
| NOS1 BONE | 2.58 | 3.36 | 3.13 | 3.62 | 2.83 | 2.84 | 2.8 | 3.67 |  | 1.42 |  | 3.87 | 3.87 | 3.01 |
| NY BONE | 2.96 | 3.48 | 2.97 | 3.17 |  | 3.15 | 3.27 | 3.45 | 3.27 | 2 | 2.47 | 3.56 |  | 3.41 |
| PCI30 HEADNECK | 3.16 | 3.42 | 3.12 | 3.14 | 3.14 | 1.71 | 3.15 | 3.28 |  | 2.63 | 2.6 | 3.58 |  |  |
| RDES SOFT TISSUE | 2.73 | 3.42 | 2.6 | 4.17 | 3.42 |  | 3.41 | 3.9 | 4 | 2.92 | 2.44 | 4.04 |  | 3.76 |
| SAOS2 BONE | 3.04 | 3.08 | 2.88 | 3.41 | 2.96 | 3.15 | 2.98 | 3.9 | 3.94 | 1.69 | 1.97 | 3.89 |  |  |
| SCC003 HEADNECK | 3.21 | 3.42 | 3.05 |  | 3.45 | 2.29 | 3.28 | 3.57 |  | 2.38 | 3.02 | 3.79 |  | 3.6 |
| SCC36 HEADNECK | 3.13 | 3.02 | 2.51 | 3.52 | 2.8 | 1.81 | 2.84 | 3.63 |  | 1.53 | 2.11 | 3.63 |  | 3.74 |
| SCC47 HEADNECK |  | 3.57 | 3.1 | 3.18 | 3.48 | 2.3 | 3.46 | 3.61 | 3.53 | 2.21 | 2.46 | 3.98 |  | 3.24 |
| SCC90 HEADNECK |  | 2.96 | 3.19 | 3.25 | 3.19 | 1.84 | 3.24 | 3.49 | 3.4 | 2.21 | 1.64 | 4.01 | 3.27 |  |
| SG27 HEADNECK | 3.23 | 3.57 | 3.15 | 3.25 |  | 3.28 | 3.27 | 3.68 |  | 2.16 | 2.95 | 3.22 | 3.57 | 3.79 |
| SG28 HEADNECK |  |  |  | 3.25 |  | 1.87 |  |  | 3.21 |  |  | 3.46 |  | 4.1 |
| SG31 HEADNECK |  |  | 2.66 |  | 3.16 | 2.06 | 3.18 | 3.5 | 3.04 | 1.99 | 2.42 | 3.4 |  | 3.79 |
| SG32 HEADNECK | 2.95 |  | 2.92 | 3.55 | 2.77 | 2.87 |  | 4.29 | 3.64 | 1.29 | 2.59 |  |  | 4.91 |
| SIHA CERVIX | 3.11 |  | 3.14 | 3.23 | 3.29 |  |  | 3.34 | 3.55 | 2.35 | 2.59 | 3.9 |  | 3.73 |
| SJSA1 BONE | 5.45 |  | 3.21 | 3.42 | 5.61 | 3.54 |  | 3.28 | 3.64 | 3.23 |  | 3.63 |  | 3.31 |
| SKBR3 BREAST |  | 3.01 | 2.88 | 3.41 | 2.69 | 1.36 | 3.09 | 3.54 |  | 2.96 | 2.05 | 3.53 |  | 3.35 |
| SUM44 BREAST | 3.91 |  | 3.1 | 3.39 | 3.09 | 3.24 | 3.02 | 4.14 | 3.52 | 3.11 |  | 3.4 |  | 3.43 |
| SUM149.B1*.S BREAST |  | 3.26 | 3.1 | 3.62 |  | 3.06 |  | 3.73 | 3.73 | 2.05 | 2.42 | 3.93 | 3.8 | 3.92 |
| SUM159 BREAST |  | 3.57 | 3.42 |  | 3.53 | 3.52 | 3.45 | 3.44 |  | 2.84 | 3.12 | 3.35 | 3.63 | 3.15 |
| VP229 BREAST |  |  | 3.2 | 3.59 | 3.13 | 1.74 |  | 3.86 | 4.36 | 1.98 | 2.74 | 3.53 |  | 3.66 |
| YAMATO SYNOVIAL | 2.34 | 3.66 | 1.83 | 4.14 |  | 4.37 |  | 4.22 | 4.04 | 2.5 |  | 4.72 | 2.3 | 4.27 |
| ZR751 BREAST |  | 3.67 | 2.77 | 2.89 | 3.07 | 2.6 | 3.57 | 3.24 | 2.68 | 2.99 |  |  |  | 3.69 |
